In assay [1] the target is recombinant human KIT tyrosine kinase protein (Homo sapiens (Human), UniProt P10721). Kind of assay: KIT tyrosine kinase assay (ADP-Glo). The assay is classed as biochemical. Here is the method: An in vitro assay utilizing the recombinant human KIT tyrosine kinase protein was developed to measure compound inhibition of KIT. KIT tyrosine kinase activity was measured by the ADP-Glo Kinase Assay system with poly […]) peptide substrate. Kinase Assay was performed in white 384-well plates and the luminescence was measured by Victor X5 Multilabel Counter (Perkin Elmer). Recombinant intracellular domain of human KIT protein was purchased from Carna Biosciences (Kobe, Japan). Poly […]) peptide was purchased from Sigma-Aldrich (St. Louis, Missouri, USA). ADP-Glo Kinase Assay reagent was purchased from Promega (Madison, Wisconsin, USA). Each test compound was dissolved in 100% DMSO to prepare 10 mM stock solutions. […] After the preincubation, 3 μL of substrate/ATP mixture was added and incubated for 1 hour at room temperature. The tyrosine phosphorylation by KIT kinase was quantified by ADP-Glo kinase assay kit following the manufacturer's protocol. Briefly, the phosphorylation reaction was terminated by adding 10 μL ADP-Glo reagent and incubated for 60 minutes at room temperature. 20 μL of Kinase Detection Reagent was added to each well and luminescence was measured by plate reader. […] Half maximal inhibitory concentration (IC50) was calculated by a Four […] Logistic Regression model using GraphPad Prism (GraphPad Software). The value without recombinant KIT protein and without test compound was used as a negative control (assay background).
Sequence of recombinant human KIT tyrosine kinase protein (P10721 546-976): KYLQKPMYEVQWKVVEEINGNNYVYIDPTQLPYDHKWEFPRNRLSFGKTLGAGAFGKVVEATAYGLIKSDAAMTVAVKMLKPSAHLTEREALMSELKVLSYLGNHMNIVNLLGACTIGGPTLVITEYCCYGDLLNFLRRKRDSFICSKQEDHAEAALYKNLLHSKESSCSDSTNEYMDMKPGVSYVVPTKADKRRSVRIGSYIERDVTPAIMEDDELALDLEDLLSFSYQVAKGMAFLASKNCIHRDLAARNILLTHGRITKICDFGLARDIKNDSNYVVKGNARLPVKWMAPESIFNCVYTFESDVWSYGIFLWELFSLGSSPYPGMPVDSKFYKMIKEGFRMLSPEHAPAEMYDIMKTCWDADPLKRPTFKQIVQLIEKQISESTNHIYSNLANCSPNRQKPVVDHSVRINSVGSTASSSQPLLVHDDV
Background: ADP-Glo first removes unused ATP, then detects ADP through luciferase.

A further assay deals with M-07e cells. Kind of assay: SCF-dependent M-07e cell proliferation assay. Type of assay: cell-based, human. The settings on record: Homo sapiens, M-07e, 72 h, read-out: M-07e IC50. The protocol: SCF-dependent cell proliferation assay was developed to measure the inhibitory potency of the compounds in M-07e cells, which express wild-type human KIT protein. The assay was performed in 96-well plates and the IC50 of each KIT inhibitor was determined by CellTiter Glo Assay reagent and Victor X5 Multilabel Counter (Perkin Elmer).
M-07e cells were purchased from AcceGen Biotechnology. Cells were maintained with M-07e Growth medium: RPMI-1640 containing 20% FBS, 100 U/mL penicillin and 100 microgram/mL streptomycin, 10 ng/mL rhGM-CSF, 10 ng/mL rhSCF. M-07e cells were seeded at a density of 5000 cells/90 μL/well in 96-well plates. Test compounds were dissolved in 100% DMSO to make 20 mM stock solution and serially diluted 1:3 with 100% DMSO to make an 11-point dilution series with concen-trations from […] to 0.024 μM. The serially diluted compounds were then each diluted 1:50 with culture medium to obtain assay compound solutions containing 2% DMSO. Ten μL of assay compound solutions were added to the 90 μL of culture cell suspension in the 96-well plate, with a final DMSO concentration of 0.2%. The plates were then incubated in a 5% CO2 incubator at 37° C. for 3 days. To obtain Day Zero Controls for background calculation, cells were seeded at 5000 cells/100 μL in a new 96-well plate and processed on the same day. Both Day Zero controls and 3 day culture plates were then treated as follows. 100 μL of CellTiter Glo Assay reagent was added to each well and the plate was incubated at room temperature for 15 min on a shaker at 200-300 RPM. Then 100 μL of cell lysate samples were transferred to white wall 96-well plates and luminescence was measured by a plate reader. The luminescence of Day Zero Control was subtracted from the luminescence intensity of 3 day culture readings. The assay control for this experiment was cells treated with 0.2% DMSO in culture medium and wells with 100 μL of culture medium (0.2% DMSO without cells) were used as the blank for data analysis.
The IC50 value of each compound was determined by using % inhibition by nor-malizing inhibition in DMSO treated control wells to 0% using the following formula method: […]
Plot percent inhibition in proliferation of triplicates against the respective concen-trations of compound and fit the dose response curve using the sigmoidal dose response equation to generate the IC50 in GraphPad Prism 8 software.

[2] abbreviates: SCF-dependent M-07e cell proliferation, 3 days, CellTiter Glo.

Counter-ions that a name gives are not always drawn. Like-named read-outs stand apart in the source and are kept apart here.

Regarding `CC(C)N(C)c1ccc(CNC(=O)c2ccc3c(c2)[nH]c(=O)n3C)cn1` [Compound 11b, N-((6-(Isopropyl(methyl)amino)pyridin-3-yl)methyl)-1-methyl-2-oxo-2,3-dihydro-1H-be nzimidazole-5-carboxamide hydrochloride], the IC50 (commonly the concentration that gives 50% inhibition) in assay [1] (Table 98) was found to be 96 nM; in the assay with M-07e cells (setting [2]), 220 nM.

As for `Cn1c(=O)[nH]c2cc(C(=O)NCc3ccc(N(C)[C@H]4C[C@@H](C(F)(F)F)C4)nc3)ccc21` [Compound 12, 1-Methyl-N-((6-(methyl(cis-3-(trifluoromethyl)cyclobutyl)amino)pyridin-3-yl)methyl)-2-oxo-2,3-dihydro-1H-benzimidazole-5-carboxamide], the IC50 was found to be 36 nM in assay [1] (Table 98) and 38 nM in the assay with M-07e cells (setting [2]).

Take `C[C@H]1CCCN1c1ccc(CNC(=O)c2ccc3c(c2)[nH]c(=O)n3C)cn1` [Compound 14, (S)-1-Methyl-N-((6-(2-methylpyrrolidin-1-yl)pyridin-3-yl)methyl)-2-oxo-2,3-dihydro-1H-benzimidazole-5-carboxamide]: the concentration for half-maximal inhibition (IC50) in assay [1] (Table 98) stood at 63 nM; in the assay on M-07e cells (setting [2]), 560 nM.

As to `CC(c1ccc(F)cc1)c1ccc(CNC(=O)c2ccc3c(c2)[nH]c(=O)n3C)cn1` (stereo not shown) [Compound 15, N-((6-(1-(4-Fluorophenyl)ethyl)pyridin-3-yl)methyl)-1-methyl-2-oxo-2,3-dihydro-1H-be nzimidazole-5-carboxamide], the half-maximal inhibitory concentration (IC50) in assay [1] (Table 98) is 67 nM; in the assay on M-07e cells (setting [2]), 2200 nM.

Turning to `CC(C)N1CCc2cc(CNC(=O)c3ccc4c(c3)[nH]c(=O)n4C)cnc21` [Compound 17, N-((1-Isopropyl-2,3-dihydro-1H-pyrrolo[2,3-b]pyridin-5-yl)methyl)-1-methyl-2-oxo-2,3-dihydro-1H-benzimidazole-5-carboxamide], the IC50 in assay [1] (Table 98) is 22 nM; in the assay with M-07e cells (setting [2]), 390 nM.

For the compound `Cn1c(=O)[nH]c2cc(C(=O)NCc3cnc4c(c3)CCN4C3CCC(F)(F)CC3)ccc21` [Compound 18, N-((1-(4,4-difluorocyclohexyl)-2,3-dihydro-1H-pyrrolo[2,3-b]pyridin-5-yl)methyl)-1-met hyl-2-oxo-2,3-dihydro-1H-benzimidazole-5-carboxamide], the concentration for half-maximal inhibition (IC50) in assay [1] (Table 98) was 57 nM; in the assay on M-07e cells (setting [2]) it was 210 nM.

For `Cn1c(=O)[nH]c2cc(C(=O)NCc3cnc4c(c3)CCN4c3ccccc3F)ccc21` [Compound 19, N-((1-(2-Fluorophenyl)-2,3-dihydro-1H-pyrrolo[2,3-b]pyridin-5-yl)methyl)-1-methyl-2-o xo-2,3-dihydro-1H-benzimidazole-5-carboxamide], the IC50 turned out to be 60 nM in assay [1] (Table 98) and 160 nM in the assay with M-07e cells (setting [2]).

As to `Cn1c(=O)[nH]c2cc(C(=O)NCc3cnc4c(ccn4-c4ccccc4)c3)ccc21` [Compound 20, 1-Methyl-2-oxo-N-((1-phenyl-1H-pyrrolo[2,3-b]pyridin-5-yl)methyl)-2,3-dihydro-1H-benzimidazole-5-carboxamide], the figures for the IC50 (in assay [1] (Table 98); in the assay on M-07e cells (setting [2])) were 38 nM and 400 nM, respectively.

As for `Cn1c(=O)[nH]c2cc(C(=O)NCc3ccc(OC4CC(C(F)(F)F)C4)nc3)ccc21` (stereo not shown) [Compound 103, 1-Methyl-2-oxo-N-((6-(3-(trifluoromethyl)cyclobutoxy)pyridin-3-yl)methyl)-2,3-dihyd ro-1H-benzimidazole-5-carboxamide], the IC50 in assay [1] (Table 99) is 42 nM; in the assay on M-07e cells (setting [2]) it was 819 nM.

`Cn1c(=O)[nH]c2cc(C(=O)NCc3ccc(Oc4cccc(F)c4F)nc3)ccc21` [Example 36]: the IC50 in assay [1] (Table 98) worked out at 50 nM; in the assay on M-07e cells, 870 nM.

As for `Cn1c(=O)[nH]c2cc(C(=O)NCc3ccc(Oc4ccc(Cl)cc4F)nc3)ccc21` [Example 39], the IC50 in assay [1] (Table 98) was 35 nM; with M-07e cells, 140 nM.

In the case of `Cn1c(=O)[nH]c2cc(C(=O)NCc3ccc(OC4CCOC(C)(C)C4)nc3)ccc21` (stereo not shown) [Example 48], the IC50 turned out to be 550 nM in assay [1] (Table 98) and 8900 nM in the assay with M-07e cells.

Consider `Cn1c(=O)[nH]c2cc(C(=O)NCc3ccc(Nc4ccc(F)cc4)nc3)ccc21` [Example 57], for which the IC50 in assay [1] (Table 98) amounted to 227 nM; in the assay on M-07e cells (setting [2]), 7300 nM.

For the compound `CCN(c1ccc(F)cc1)c1ccc(CNC(=O)c2ccc3c(c2)[nH]c(=O)n3C)cn1` [Example 58], the figures for the IC50 (in assay [1] (Table 98); with M-07e cells) were 21 nM and 2400 nM, respectively.

On to `CN(c1ccc(CNC(=O)c2ccc3c(c2)[nH]c(=O)n3C)cn1)c1ccccc1F` [Example 59], for which the IC50 in assay [1] (Table 98) came out at 14 nM; with M-07e cells, 190 nM.

In the case of `CN(c1ccc(CNC(=O)c2ccc3c(c2)[nH]c(=O)n3C)cn1)c1cccc(F)c1F` [Example 61], the IC50 came to 56 nM in assay [1] (Table 98) and 760 nM in the assay on M-07e cells.

`CN(c1ccc(CNC(=O)c2ccc3c(c2)[nH]c(=O)n3C)cn1)c1ccc(F)cc1F` [Example 62]: the concentration for half-maximal inhibition (IC50) amounted to 170 nM in assay [1] (Table 98) and 290 nM in the assay with M-07e cells.

For the compound `CN(c1ccc(CNC(=O)c2ccc3c(c2)[nH]c(=O)n3C)cn1)C1CC(F)(F)C1` [Example 65], the IC50 in assay [1] (Table 98) was determined as 35 nM; in the assay with M-07e cells, 270 nM.

`CN(Cc1ccccc1)c1ccc(CNC(=O)c2ccc3c(c2)[nH]c(=O)n3C)cn1` [Example 66]: the IC50 in assay [1] (Table 98) came to 33 nM; in the assay on M-07e cells it was 79 nM.

For the compound `CN(CCC(F)(F)F)c1ccc(CNC(=O)c2ccc3c(c2)[nH]c(=O)n3C)cn1` [Example 67], the IC50 in assay [1] (Table 98) was found to be 25 nM; in the assay with M-07e cells it was 220 nM.

Turning to `CN(CC1CC(F)(F)C1)c1ccc(CNC(=O)c2ccc3c(c2)[nH]c(=O)n3C)cn1` [Example 68], the results for the concentration for half-maximal inhibition (IC50) (in assay [1] (Table 98); in the assay on M-07e cells) were 42 nM and 130 nM, respectively.

On to `CN(CC1CCCOC1)c1ccc(CNC(=O)c2ccc3c(c2)[nH]c(=O)n3C)cn1` (stereo not shown) [Example 69], for which the values for the IC50 (in assay [1] (Table 98); with M-07e cells) were 96 nM and 520 nM, respectively.

`CN(CC1CCC(F)(F)CC1)c1ccc(CNC(=O)c2ccc3c(c2)[nH]c(=O)n3C)cn1` [Example 70]: the IC50 was found to be 61 nM in assay [1] (Table 98) and 140 nM in the assay on M-07e cells.

Take `CN(CC1CCCCO1)c1ccc(CNC(=O)c2ccc3c(c2)[nH]c(=O)n3C)cn1` (stereo not shown) [Example 71]: the values for the IC50 (in assay [1] (Table 98); with M-07e cells) were 60 nM and 310 nM, respectively.

Turning to `CN(CC1CCOCC1)c1ccc(CNC(=O)c2ccc3c(c2)[nH]c(=O)n3C)cn1` [Example 72], the values for the IC50 (in assay [1] (Table 98); in the assay with M-07e cells) were 84 nM and 800 nM, respectively.

Regarding `CN(Cc1cccc(F)c1)c1ccc(CNC(=O)c2ccc3c(c2)[nH]c(=O)n3C)cn1` [Example 73], the values for the half-maximal inhibitory concentration (IC50) (in assay [1] (Table 98); in the assay with M-07e cells) were 27 nM and 98 nM, respectively.

As for `CN(Cc1ccccc1F)c1ccc(CNC(=O)c2ccc3c(c2)[nH]c(=O)n3C)cn1` [Example 74], the concentration for half-maximal inhibition (IC50) amounted to 25 nM in assay [1] (Table 98) and 110 nM in the assay with M-07e cells.

As for `CN(c1ccc(CNC(=O)c2ccc3c(c2)[nH]c(=O)n3C)cn1)C12CC(C1)C2` [Example 75], the IC50 in assay [1] (Table 98) was 61 nM; with M-07e cells it was 500 nM.

As for `CN(Cc1ccccn1)c1ccc(CNC(=O)c2ccc3c(c2)[nH]c(=O)n3C)cn1` [Example 76], the 50% inhibitory concentration (IC50) came to 86 nM in assay [1] (Table 98) and 1600 nM with M-07e cells.

For `CN(c1ccc(CNC(=O)c2ccc3c(c2)[nH]c(=O)n3C)cn1)C1CC(C)(C)C1` [Example 77], the 50% inhibitory concentration (IC50) in assay [1] (Table 98) was determined as 29 nM; with M-07e cells, 110 nM.

`CN(c1ccc(CNC(=O)c2ccc3c(c2)[nH]c(=O)n3C)cn1)C12CC(C)(C1)C2` [Example 78]: the values for the half-maximal inhibitory concentration (IC50) (in assay [1] (Table 98); with M-07e cells) were 26 nM and 150 nM, respectively.

As for `CN(c1ccc(CNC(=O)c2ccc3c(c2)[nH]c(=O)n3C)cn1)C12CC(C(F)(F)F)(C1)C2` [Example 80], the figures for the IC50 (in assay [1] (Table 98); in the assay on M-07e cells) were 31 nM and 240 nM, respectively.

(Values after patent US20260042747A1, “KIT INHIBITORS, COMPOUNDS, PHARMACEUTICAL COMPOSITIONS, AND METHODS OF USE THEREOF” (Alivexis, Inc., priority 2022, published 2026).)
